Earlier results in patent publication US20260027125A1, “AN ANTIBACTERIAL PARENTERAL FORMULATION AND METHODS THEREOF” (BUGWORKS RESEARCH INDIA PVT. LTD., priority 2022, published 2026).

Settings: counter ion selected for salt screening; cited from earlier work

O=C(O)CC(O)C(=O)O (stereo not shown) [malic acid]
pKa (second value): 3.4, 5.11
